Read-outs that look alike come from different tables or passages of the source.
Assays:
[1] = Octanol/water partition coefficient (Log Pow) of direct dyes; assay type: physicochemical; details: octanol/water partition coefficient of the dye
Text: Pow is the octanol/water partition coefficient, which can be defined as the ratio of the concentration of a solute, such as the direct dye in the present disclosure, in a water-saturated octanolic phase to its concentration in an octanol-saturated aqueous phase. The octanol/water partition coefficient is typically expressed in Logarithmic form.
There are several existing experimental methods by the Organisation for Economic Co-operation and Development (OECD) and Quantitative Structure-Property Relationship (QSPR) models available for Log Pow measurement or prediction. The experimental methods include: the ‘slow-stirring’ method (OECD Test No. 123), the high-performance liquid chromatography (HPLC) method (OECD Test No. 117), and shake flask methods (referred to in OECD Test No. 107).
Thus, partition coefficient of a dye may be calculated as follows: Log Pow=Log [(dye concentration in octanol)/(dye concentration in water)].
The Log Pow value of a direct dye can be positive, negative or neutral. The Log Pow values for some dyes follows in the below table.

[2] = Removal of HC Blue 15 from dyed hair swatches by organic salt solutions (ΔE, CIE L*a*b*); details: HC Blue 15 dyed hair; for ΔE: soaked 30 minutes at 40° C., shampooed once
Experimental: (§1) Unless otherwise indicated, hair swatches were all treated using the same protocol. Specifically, 2 g dyed hair swatches are soaked in 80 g treatment solution in water for 30 minutes at 40° C., then the treated hair swatches are then shampooed/washed once (rinsing step) and blow-dried for evaluation.
(§2) Unless otherwise indicated, color removal performance is measured using CIE L* a* b* coordinates. ΔE is used to describe the color difference and is defined by the following equation: ΔE*ab=√{square root over ((L*2−L*1)^2+(a*2−a*1)^2+(b*2−b*1)^2)} where, L1*, a1; b1 are measured on freshly dyed hair L2*, a2, b2 are measured on the dyed hair treated by color remover systems. The higher ΔE values, the more efficient the color removal.
Hair swatches dyed with HC Blue 15 were treated with the organic salts at varying concentrations using the protocol described above.

[3] = Removal of Basic Red 51 from dyed hair swatches by organic salt solutions (ΔE); details: 10% organic salt in water; Basic Red 51 dyed hair; soaked 30 minutes at 40° C.; water control 5.3
Experimental: as §1, §2
Hair swatches dyed with Basic Red 51 were treated with BMIM octylsulfate and TBuMA Cl, each at 10% concentration using the protocol described above. Basic Red 51 contains a quaternary moiety and has the structure below.

[4] = 10% organic salt in water; hydroxyanthraquinoneaminopropyl methyl morpholinium methosulfate dyed hair; 30 minutes at 40° C.; water control 2.9

| Log Pow [1] | Compound | ΔE ([2]; 1% organic salt in water) | ΔE ([2]; 5% organic salt in water) | ΔE ([2]; 10% organic salt in water) | Concentration of organic salt from which the ΔE value increased significantly [2] | ΔE [3] | ΔE [4] | ΔE ([2]; 25% organic salt in water) |
| --- | --- | --- | --- | --- | --- | --- | --- | --- |
| around 2.89 | COS(=O)(=O)[O-].C[N+]1(CCCNc2ccc(O)c3c2C(=O)c2ccccc2C3=O)CCOCC1 [Hydroxyanthraquinoneaminopropyl methyl morpholinium methosulfate] | – | – | – | – | – | – | – |
| – | butyl-3-methylimidazolium octyl sulfate [BMIM octyl sulfate] | 1.3 | 18.4 | 32.2 | about 5% | 22.2 | 39.1 | – |
| – | CCCC[N+](C)(CCCC)CCCC.[Cl-] [TBuMA Cl, tributylmethyl ammonium chloride] | – | – | – | – | 23.1 | – | 32.8 |

Reference: patent US11154479B1, “Methods of removing color from color-treated hair” (L'Oreal, priority 2020, dated 2021)
